pIC50: −log10 of the molar value. Where two headings read alike, the source gives them in different places.
Key:
H9 cells = test: Disruption of cell clusters formed by H9 cells in culture; assay type: cell-based; settings: Homo sapiens, 16 to 24 h
Description: T-lymphocytic H9 and Jurkat cells were maintained as suspension cultures in RPMI-1640 medium supplemented with 10% (v/v) heat-inactivated fetal calf serum, 50 micrograms/ml gentamycin and 2 mM L-glutamine. To assess the effects of Ajoene on adhesive interactions of the cells, H9 cells or Jurkat cells were seeded in 96-well flat-bottomed plates (3×10^5cells per well) and cultured in the presence of log 10 dilutions of Ajoene (experiment) or its vehicle (control) for 16 to 24 h.
The requirement of integrins for the formation of cell-to-cell contacts in each of these systems has long been established. It is known that in platelets the relevant integrin is GP IIb/IIIa (β3). Neutrophil aggregation is underlain by interactions of β2 integrins (e.g., LFA-1 and/or Mac-1) with their surface counterstructures, while cohesion of T-cells is supported by both β2 integrins and fibronectin-binding β1 integrins (e.g., VLA-4 and VLA-5).

[1] = tested on: 111In-labeled neutrophils; test: Neutrophil recruitment to inflamed skin; assay type: in vivo, rat; settings: 50 mg/kg i.v.; for Accumulation of 111In-labeled Neutrophils (mean ± SEM): 2 h
Excerpt: Chemotactic factors (e.g., C5adesArg) and cytokines, such as tumor necrosis factor α (TNF) or interferon gamma (IFN), induce rapid cutaneous inflammatory reactions, when injected intradermally. These inflammatory reactions are characterized by integrin-mediated migration of ^51 Cr-labeled monocytes and ^111 In-labeled neutrophils. The mechanisms of leukocyte recruitment to the inflammatory loci differ, however, in that chemotactic factors act primarily on leukocytes (by upregulating integrins), whereas TNF and IFN activate endothelial cells (which results, inter alia, in rapid expression of integrin ligands, such as ICAM-1 and VCAM-1).
Agents used for the induction of the inflammation included rat IFN, recombinant mouse TNF (Genentech, South San Francisco, Calif.), and Zymozan-activated serum (ZAS). ZAS, a source of C5adesArg, was generated by activating complement in normal rat serum with 5 mg/ml of Zymozan A (Sigma Chemical Company, St. Louis, Mo.) at 37° C. for 60 min, after which the zymozan was removed.
Rat monocytes and neutrophils were isolated and labeled as described in Example 6, supra. Male Lewis rats were administered intravenously with 50 mg/kg Ajoene (treatment group) or its vehicle (control), followed within 2-3 min by infusion of the labeled cells. Immediately afterwards, the skin on the back of all animals was shaved and the inflammatory stimuli and the diluent control were injected intradermally at several sites of the skin of each animal. Two hours later, 1 ml of blood was taken from each rat, and the animals were sacrificed. The dorsal skin, including the area of dermal inflammatory reactions, was removed and frozen, and the injected skin sites were punched out with a 12-mm punch and counted in a gamma spectrometer (model 1280, LXB Instruments).

HIV-1LAV-BRU 1 = HIV-1LAV-BRU 1 replication in CEM13 cells (HIV antigens by solid phase immunoassay); assay type: cell-based; settings: for pIC50: Human immunodeficiency virus 1, CEM13 cells
cell-free HIV = test: Cell-free HIV infection of syncytiotrophoblasts; assay type: cell-based, HIV-1; settings: 200 micromoles per liter and lower concentrations tested
Description: In order to assess the ability of Ajoene to inhibit lymphocyte-mediated HIV infection of syncytiotrophoblasts, HIV-1LBi -infected MOLT-4 cells were added to adherent cultures of uninfected syncytiotrophoblasts in the presence and absence of Ajoene. Various additional control conditions were also established. First, some wells received filtered (0.45 micrometer) supernatant of cell-free HIV from infected cell cultures. Yet other negative controls included syncytiotrophoblasts cultured alone and syncytiotrophoblasts cultured with uninfected MOLT-4 cells. After 24 hours, the cocultures were washed to removed unbound lymphocytes, fixed, permeabilized, stained for viral core antigens (p24 and p55), and viewed under a fluorescence microscope.

sperm cells = assay type: cell-based, human; settings: 200 micromoles per l
Description: Human sperm was from a donor with known fertility (No. 113). The sample (freshly taken) was allowed to liquefy, was diluted 3:1 with BWW/HSA, was centrifuged at 325×g for 5 minutes, and was washed once with the same medium. A small portion of the original sample was analyzed (computer-assisted sperm analysis) using the Cell-Soft package. The pellet of washed sperm cells was subjected to the swim-up procedure (1 ml of the medium was added for this purpose). The swim-up was collected (about 0.5 ml), the cells were counted (Makler chamber), and their motility determined (%). The volume of the sample was adjusted with the medium to give 10^7 cells per ml, and the samples were incubated overnight (18 hours) at 37° C. for capacitation. Thereafter, motility and cell density were determined once again, and the sample was divided into three equal portions, each to be subjected to appropriate treatment.
Equivalent volumes of ethanol and BWW/HSA were added to the two control portions of each cell type (vehicle control and untreated cells, respectively).

`C=CCSSC=CC[S+]([O-])CC=C` (stereo not drawn) [Ajoene, 4,5,9-trithiadodeca-1,6,11-triene-9-oxide] was tested, and the pIC50 (H9 cells) was about 7.30, the “Accumulation of 111In-labeled Neutrophils (mean ± SEM)” value (shortened to “Accumulation … (mean ± SEM)”) ([1]; 10 ng TNF, P < 0.006) was 1,289 cpm per inflammatory locus and the “inhibition of neutrophil migration to loci of acute cutaneous inflammation” value [1] was 30-40%. For the same compound, the “Accumulation … (mean ± SEM)” value ([1]; 25% ZAS, P < 0.001) was 5,558 cpm per inflammatory locus, the “Accumulation … (mean ± SEM)” value ([1]; 50% ZAS, P < 0.001) was 7,926 cpm per inflammatory locus and the “Accumulation … (mean ± SEM)” value ([1]; 300 U IFN, P < 0.060) was 160 cpm per inflammatory locus. The “Accumulation … (mean ± SEM)” value ([1]; diluent control stimulus, N.S.) was 53 cpm per inflammatory locus, the “inhibition of HIV replication, stepwise addition” value (HIV-1LAV-BRU 1; 50 nanomoles per liter per 12 h, total 0.25 micromoles per liter, m.o.i. 0.1, 72 h) was 30% and the pIC50 (HIV-1LAV-BRU 1; HIV-1Lav-BRU1, read-out: IC50 of HIV replication (FIG. 1, curve 2)) was about 5.30. For the same compound, the pIC50 (HIV-1LAV-BRU 1; m.o.i. 0.1, 72 h, read-out: IC50 for HIV-1LAV-BRU 1 replication) was about 5.30, the “inhibition of cell-free HIV infection of syncytiotrophoblasts” value (cell-free HIV) was “totally inhibited” and the “toxicity or impaired cellular vitality (motility of sperm cells)” value (sperm cells) was “not associated with toxicity or impaired cellular vitality”.
